Experimental data published in patent US20220031798A1, “METHODS AND COMPOSITIONS FOR THE TREATMENT OF OPIOID DEPENDENCE AND FOR THE TREATMENT OF PAIN” (Duke University, priority 2018, published 2022).
“Also recorded” adds a separate entry of the source. Residues, ends and D or L forms follow the SMILES beside them.

Experiments:
[1] = tested on: morphine-dependent Sprague-Dawley rats; test: Naloxone-precipitated opioid withdrawal signs after 5-day morphine regimen; assay type: in vivo, rat; settings: for Withdrawal signs after naloxone challenge on Day 9: Study 2: adolescent male and female rats, 5 days morphine, then 3 days ketamine 1 mg/kg bid or rapastinel 5 mg/kg alternate days i.p., naloxone 1 mg/kg; for Withdrawal signs after naloxone challenge on day 9, adolescent vs adult: Study 3: adolescent and adult rats
Procedure: Male and female adolescent and adult Sprague-Dawley rats (PN 28-30 and PN 60-75) from Charles River Laboratories were treated with a 5-day, increasing dose morphine regimen (5 mg/kg bid, increasing 5 mg/kg/day to 25 mg/kg) to induce opioid dependency. Animals were group-housed in a 12/12 light/dark cycle with free access to water and standard lab chow. Agents were administered by intraperitoneal injection. In Study 1, animals received morphine (25 mg/kg) on day 6 followed 1 hour later by a naloxone challenge (1 mg/kg) and withdrawal behaviors were quantified as described by Gellert and Holtzman (J Pharmacol Exp Ther. 1978; 205(3):536-546). A second morphine/naloxone challenge was given 21 days later (study day 27). In Study 2 (see FIG. 1), male and female adolescent rats received the same morphine treatment, but on day 6 they received naloxone only (1 mg/kg) to precipitate withdrawal and withdrawal signs (wet dog shakes, diarrhea, mastication, salivation, ptosis and abnormal posture) were assessed as in Study 1. Then animals received saline, ketamine (1 mg/kg, bid) or rapastinel (5 mg/kg on alternate days). On day 9, animals received a second naloxone challenge (1 mg/kg) without a previous morphine treatment, and withdrawal signs were quantified to measure efficacy of ketamine and rapastinel. Study 3 compared the ability of rapastinel to accelerate the loss of opioid withdrawal signs in adult and adolescent rats and Study 4 compared rapastinel effects in male and female adults. Treatment results were analyzed by sequential 3-way (age×sex×treatment) and 1 way (treatment) ANOVA using NCSS followed by post-hoc Fishers LSD multiple comparison test to compare differences between groups. All experiments were approved by the Duke University IACUC and conducted in accordance with the NIH Guide for the Care and Use of Laboratory Animals.
Opioid withdrawal: Animals are treated with saline or naloxone as described. Ten minutes later they are scored by a modification of the Gellert/Holtzman scale for wet dog shakes, diarrhea, mastication, salivation, ptosis and abnormal posture.

[2] = humans; cited from earlier work
[3] = animal models; cited from earlier work
GluR1 = GluR1 expression in medial prefrontal cortex by Western blot; assay type: in vivo, rat; settings: mPFC dissected at end of treatment
Procedure: The medial prefrontal cortex (mPFC) Brain Region is responsible for decision making in the context of reward (opioids) and penalty (withdrawal). Rats were treated with morphine in accordance with the methods of Example 1. The mPFC was dissected from rats at end of treatment and GluR1 expression levels were measured with a Western Blot test.

[4] = animal models (Moskal et al., 2016); cited from earlier work
[5] = tested on: adult male and female rats; test: Relapse to morphine conditioned place preference (CPP); assay type: in vivo, rat; settings: rapastinel 5 mg/kg during extinction days 6-9 and before relapse test, morphine 2.5 mg/kg
Procedure: CPP and extinction were conducted in adult male and female rats with a biased CPP procedure adapted from Mueller et al. (Mueller et al., Behavior. Brain Res 136: 389-397(2002)). CPP is conducted in a two-sided chamber. Side 1 had white walls and plexiglass flooring, and Side 2 had black walls and plastic mesh flooring (preferred side).
Rats went through a conditioned place preference procedure involving daily pairing with saline and morphine (2.5 mg/kg) on opposite sides of the CPP apparatus for 4 days. On habituation day (day 1), animals were allowed to explore the whole apparatus for 30 minutes. On days 2-4, rats were restricted to Side 1 for morphine (2.5 mg/kg sc) and Side 2 for saline (alternated am and pm daily). On day 5 they received a test of conditioning in which they were allowed to explore the whole apparatus. For the next 4 days (days 6-9) they received daily saline or rapastinel (5 mg/kg) 30 minutes before twice daily extinction trials in which animals received saline on both sides of the apparatus. They received an extinction test in which they were allowed to explore the entire apparatus on day 10, and then a relapse test on day 11 in which they received a dose of saline or rapastinel, followed by saline or 2.5 mg/kg of morphine and were allowed to explore the apparatus.
N=5 for rapastinel and 3 for saline.

morphine-dependent rats = test: Withdrawal-precipitated hyperalgesia, von Frey test of pain sensitivity; assay type: in vivo, rat
Source text: FIG. 6. Schematic for withdrawal-precipitated hyperalgesia studies and schematic for von Frey test of pain sensitivity.
There was no difference in hyperalgesia caused by morphine withdrawal before treatment; there was significant expression of naloxone-precipitated hyperalgesia in morphine dependent animals.

Structure (SMILES): C=CCN1CC[C@]23c4c5ccc(O)c4O[C@H]2C(=O)CC[C@@]3(O)[C@H]1C5 [naloxone]
- Withdrawal response to morphine/naloxone challenge on Day 6 ([1]; Study 1: 5 days morphine, morphine 25 mg/kg then naloxone 1 mg/kg 1 hour later, adolescent and adult rats): elicited a robust withdrawal response

Structure (SMILES): N[C@@H]1CON=C1O [d-cycloserine]
- Half-life [2]: short half-life
- CPP extinction and naloxone place aversion [3]: facilitated CPP extinction and naloxone place aversion

Structure (SMILES): CNC1(c2ccccc2Cl)CCCCC1=O (stereo not drawn) [ketamine]
- Withdrawal signs after naloxone challenge on Day 9 [1]: not ketamine extinguished naloxone-precipitated withdrawal; also recorded: not ketamine caused an enhanced loss of opioid withdrawal signs; also recorded: not ketamine accelerated loss of withdrawal signs; also recorded: only marginally effective

Structure (SMILES): CN1CC[C@]23c4c5ccc(O)c4O[C@H]2[C@@H](O)C=C[C@H]3[C@H]1C5 [morphine]
- GluR1 expression in the mPFC (GluR1): higher expression of GluR1; also recorded: significantly (p<0.001) higher GluR1 expression

Structure (SMILES): C[C@@H](O)[C@H](N)C(=O)N1CCCC1C(=O)N1CCC[C@H]1C(=O)N[C@H](C(N)=O)[C@@H](C)O (stereo partly drawn) [Rapastinel, rapastinel] (HELM PEPTIDE1{T.[O=C(C1CCCN1[*:1])[*:2]].P.T.[am]}$$$$V2.0)
- Withdrawal signs after naloxone challenge on Day 9 [1]: extinguished naloxone-precipitated withdrawal; also recorded: caused an enhanced loss of opioid withdrawal signs; also recorded: accelerated loss of withdrawal signs
- Withdrawal signs after naloxone challenge on day 9, adolescent vs adult ([1]; 5 days morphine then 3 days saline or rapastinel): extinguished naloxone-precipitated withdrawal comparably in adolescent and adult rats; also recorded: accelerated extinction of opioid withdrawal at both ages; also recorded: significantly enhanced recovery from opioid dependence in both adolescent and adult rats
- Withdrawal signs after naloxone challenge on day 9, adolescent vs adult ([1]; 5 days morphine then 3 days saline or rapastinel, listed as rapastinel): effective
- Withdrawal signs after naloxone challenge on day 9, male vs female ([1]; Study 4: male and female rats, 5 days morphine then 3 days saline or rapastinel): extinguished naloxone-precipitated withdrawal comparably in male and female rats
- GluR1 expression in the mPFC (GluR1): no significant effect
- Negative side effects during treatment [4]: has not been shown to produce any negative side effects
- Difference in time spent on drug-paired side, day 11 (relapse test) vs day 10 (extinction trial) [5]: blocks relapse to conditioned place preference
- Difference in time spent on drug-paired side, day 11 (relapse test) vs day 10 (extinction trial) ([5]; listed as rapastinel): blunted morphine-induced relapse
- Hyperalgesia scores (morphine-dependent rats; morphine-dependent rats, Day 9 following treatment): trend towards a return to baseline (SS) hyperalgesia scores; also recorded: blunts hyperalgesia
- Baseline (SS) hyperalgesia response (morphine-dependent rats; saline (morphine-naive) rats): does not alter baseline (SS) response
